Source: patent publication US11466044B2 (WAYNE STATE UNIVERSITY, priority 2017, dated 2022)
≈ marks a conversion by molar mass, not a printed value. Where two headings read alike, the source gives them in different places.

Legend:
[1] = test system: MRSA; test: MIC by broth microdilution, MRSA isolates; type: cell-based; conditions: Table 1 (Example 2); for MIC50 MRSA AG38: strain AG38; for MIC50 MRSA AG39: strain AG39; for MIC50 MRSA AG42: strain AG42; for MIC50 MRSA AG44: strain AG44
[2] = test system: E coli wild type; test: MIC by broth microdilution, wild type E coli; type: cell-based; conditions: for MIC50 E coli BM13 (AG06) wt: Table 2A (Example 2); for MIC50 E coli pH430 WT: Table 2B (Example 2); for MIC50 E coli AG01: strain AG01; for MIC50 E coli AG01 / MIC50 E coli AG03 / MIC50 E coli AG55: Table 1 (Example 2); for MIC50 E coli AG03: strain AG03; for MIC50 E coli AG55: strain AG55; for MIC AG212 E. coli: strain AG212 E. coli (ATCC25922)
[3] = test system: P aeruginosa; test: MIC by broth microdilution, P aeruginosa isolates; type: cell-based, Pseudomonas aeruginosa; conditions: for MIC50 P aeruginosa AG31: strain AG31; for MIC50 P aeruginosa AG31 / MIC50 P aeruginosa AG32 / MIC50 P aeruginosa AG33 / MIC50 P aeruginosa AG86: Table 1 (Example 2); for MIC50 P aeruginosa AG32: strain AG32; for MIC50 P aeruginosa AG33: strain AG33; for MIC50 P aeruginosa AG86: strain AG86
[4] = test system: E coli carrying specific resistance determinants; test: MIC by broth microdilution, E coli carrying specific resistance determinants; type: cell-based; conditions: for MIC50 / MIC: Escherichia coli
[5] = test system: wild type bacterial ribosomes; test: in-vitro translation assay, bacterial ribosomes; type: biochemical; conditions: bacterial ribosome; Table 3 (Example 2); read-out: IC50 Bac
Description: (§1) The antiribosomal activity of these compounds was investigated with cell-free translation assays using both wild type bacterial ribosomes and hybrid ribosomes carrying eukaryotic decoding A sites enabling the prediction of selectivity.

[6] = test system: cytosolic ribosome (human chimeric); type: biochemical; conditions: cytosolic; Table 3 (Example 2); read-out: IC50 Cyt
Description: as §1

[7] = test system: mitochondrial ribosome (human chimeric); type: biochemical; conditions: mitochondrial; Table 3 (Example 2); read-out: IC50 Mit
Description: as §1

[8] = test system: Klebsiella pneumonia AG215; test: MIC by broth microdilution, Klebsiella pneumonia; type: cell-based; conditions: strain AG215 Klebsiella pneumonia
[9] = test system: Acinetobacter baumannii pittii AG225; test: MIC by broth microdilution, Acinetobacter baumannii; type: cell-based; conditions: strain AG225 Acinetobacter baumannii pittii
[10] = test system: Enterobacter cloacae AG290; test: MIC by broth microdilution, Enterobacter cloacae; type: cell-based; conditions: strain AG290 Enterobacter cloacae
[11] = test system: N. gonorrhoeae; test: Disk diffusion, N. gonorrhoeae; type: cell-based
[12] = test system: M. smegmatis SZ380; test: MIC by broth microdilution, M. smegmatis; conditions: strain SZ380 Mycobacterium smegmatis
[13] = strain AG220 Pseudomonas aeruginosa ATCC27853

CC1CC(O)C2O[C@H](O[C@@H]3C(N)C[C@@H](N)C(O)[C@H]3O[C@@H]3O[C@H](CO)[C@H](O[C@H]4O[C@@H](CN)[C@@H](O)C(O)C4N)C3O)C(N)[C@@H](O)[C@@H]2O1 (stereo partly drawn) [Compound 125, 4-O-(2′-Amino-4′,8′-anhydro-2′,7′,9′-trideoxy-D-threo-α-D-gluco-nonapyranosyl)-5-O-[3-O-(2,6-diamino-2,6-dideoxy-β-L-idopyranosyl)-β-D-ribofuranosyl]-2-deoxystreptamine.5AcOH]
MIC50 MRSA AG38 [1]: 8 to 16 µg/mL
MIC50 MRSA AG39 [1]: 8 µg/mL (≈ 12.2 µM)
MIC50 MRSA AG42 [1]: 8 µg/mL (≈ 12.2 µM)
MIC50 MRSA AG44 [1]: 4 µg/mL (≈ 6.1 µM)
MIC50 E coli BM13 (AG06) wt [2]: 2 µg/mL (≈ 3.05 µM)
MIC ([2]; Escherichia coli, ATCC25922, strain AG212 E. coli (ATCC25922), read-out: MIC AG212 E. coli): 2 µg/mL (≈ 3.05 µM)
MIC WT ([2]; WT, Table 3 (Example 2)): 1 to 2 µg/mL
MIC50 E coli pH430 WT [2]: 1-2 μg/ml
MIC50 E coli AG01 [2]: 8 µg/mL (≈ 12.2 µM)
MIC50 E coli AG03 [2]: 8 µg/mL (≈ 12.2 µM)
MIC50 E coli AG55 [2]: 8 µg/mL (≈ 12.2 µM)
MIC50 P aeruginosa AG31 [3]: 32 µg/mL (≈ 48.8 µM)
MIC50 P aeruginosa AG32 [3]: 16 to 32 µg/mL
MIC50 P aeruginosa AG33 [3]: >128 µg/mL
MIC50 P aeruginosa AG86 [3]: >128 µg/mL
MIC ([3]; strain AG220 Pseudomonas aeruginosa ATCC27853, read-out: MIC AG220 P. aerugin): 8 µg/mL (≈ 12.2 µM)
MIC50 ([4]; read-out: MIC50 E coli AG07 AAC(3), AG07 AAC(3), Table 2A (Example 2)): 8 µg/mL (≈ 12.2 µM)
MIC50 ([4]; read-out: MIC50 E coli AG09 AAC(6′), AG09 AAC(6′), Table 2A (Example 2)): 4 µg/mL (≈ 6.1 µM)
MIC50 ([4]; read-out: MIC50 E coli AG036 ANT(4′,4″), AG036 ANT(4′,4″), Table 2A (Example 2)): 2 to 4 µg/mL (≈ 3.05 to 6.1 µM)
MIC50 ([4]; read-out: MIC50 E coli AG036 ANT(4′,4″), AG036 ANT(4′,4″), Table 2B (Example 2)): 0.5 µg/mL (≈ 0.763 µM)
MIC50 ([4]; read-out: MIC50 E coli AG037 APH(3′)-III, AG037 APH(3′)-III, Table 2B (Example 2)): 16 µg/mL (≈ 24.4 µM)
MIC50 ([4]; read-out: MIC50 E coli AG037 APH(3′,5″), AG037 APH(3′,5″), Table 2A (Example 2)): 32 to 64 µg/mL (≈ 48.8 to 97.6 µM)
MIC50 ([4]; read-out: MIC50 E coli AG103 ArmA, AG103 ArmA, Table 2A (Example 2)): 4 µg/mL (≈ 6.1 µM)
MIC50 ([4]; read-out: MIC50 E coli AG103 armA, AG103 armA, Table 2B (Example 2)): 1 to 2 µg/mL (≈ 1.53 to 3.05 µM)
MIC50 ([4]; read-out: MIC50 E coli AG105 AAC(2′), AG105 AAC(2′), Table 2A (Example 2)): 2 to 4 µg/mL (≈ 3.05 to 6.1 µM)
MIC50 ([4]; read-out: MIC50 E coli pH414 AAC(6′)-I, pH414 AAC(6′)-I, Table 2B (Example 2)): 1 µg/mL (≈ 1.53 µM)
MIC50 ([4]; read-out: MIC50 E coli pH415 AAC(6′)-II, pH415 AAC(6′)-II, Table 2B (Example 2)): 1 to 2 µg/mL (≈ 1.53 to 3.05 µM)
MIC50 ([4]; read-out: MIC50 E coli pH421 APH(3′)-I, pH421 APH(3′)-I, Table 2B (Example 2)): > 32 µg/mL
MIC50 ([4]; read-out: MIC50 E coli pH422 APH(3′)-II, pH422 APH(3′)-II, Table 2B (Example 2)): 4 µg/mL (≈ 6.1 µM)
MIC50 ([4]; read-out: MIC50 E coli pH423 APH(3)-VI, pH423 APH(3)-VI, Table 2B (Example 2)): 2 µg/mL (≈ 3.05 µM)
MIC50 ([4]; read-out: MIC50 E coli pH432 ANT(4′), pH432 ANT(4′), Table 2B (Example 2)): 1 to 2 µg/mL (≈ 1.53 to 3.05 µM)
MIC ([4]; read-out: MIC AAC(6′)): 1 to 2 µg/mL (≈ 1.53 to 3.05 µM)
MIC ([4]; read-out: MIC ANT(4′)): 0.5 µg/mL (≈ 0.763 µM)
MIC ([4]; read-out: MIC APH(3′)-II): 4 µg/mL (≈ 6.1 µM)
MIC ([4]; read-out: MIC APH(3′)-VI): 2 µg/mL (≈ 3.05 µM)
IC50 [5]: 0.04 µM
IC50 [6]: 30 µM
IC50 [7]: 312 µM
MIC ([8]; Klebsiella pneumoniae, read-out: MIC AG215 K. pneumon): 2 µg/mL (≈ 3.05 µM)
MIC [9]: 4 µg/mL (≈ 6.1 µM)
MIC ([10]; read-out: MIC AG290 E. cloacae): 2 µg/mL (≈ 3.05 µM)
zone of inhibition at 25 nmol/disc ([11]; Neisseria gonorrhoeae): 9 mm
MIC SZ380 M. smegmatis [12]: 0.5 µg/mL (≈ 0.763 µM)

CC(O)C1OC(OC2C(N)CC(N)C(O)C2OC2OC(CO)C(OC3OC(CN)C(O)C(O)C3N)C2O)C(N)C(O)C1O (stereo not shown) [Compound 156]
MIC50 MRSA AG38 [1]: 4 to 8 µg/mL
MIC50 MRSA AG39 [1]: >128 µg/mL
MIC50 MRSA AG42 [1]: >128 µg/mL
MIC50 MRSA AG44 [1]: 2 to 4 µg/mL
MIC50 E coli BM13 (AG06) wt [2]: 1 µg/mL (≈ 1.59 µM)
MIC50 E coli pH430 WT [2]: 1 μg/ml
MIC50 E coli AG01 [2]: 4 µg/mL (≈ 6.35 µM)
MIC50 E coli AG03 [2]: 4 to 8 µg/mL
MIC50 E coli AG55 [2]: 4 µg/mL (≈ 6.35 µM)
MIC AG212 E. coli [2]: 2 µg/mL (≈ 3.18 µM)
MIC AG220 P. aerugin [3, 13]: >32 µg/mL
MIC50 E coli AG036 ANT(4′,4″) ([4]; Table 2B (Example 2)): 32 to 64 µg/mL
MIC50 E coli AG037 APH(3′)-III ([4]; Table 2B (Example 2)): >32 µg/mL
MIC50 E coli AG103 armA ([4]; Table 2B (Example 2)): 1 µg/mL (≈ 1.59 µM)
MIC50 E coli pH414 AAC(6′)-I ([4]; Table 2B (Example 2)): 1 μg/ml
MIC50 E coli pH415 AAC(6′)-II ([4]; Table 2B (Example 2)): 1 μg/ml
MIC50 E coli pH421 APH(3′)-I ([4]; Table 2B (Example 2)): >32 μg/ml
MIC50 E coli pH422 APH(3′)-II ([4]; Table 2B (Example 2)): >32 μg/ml
MIC50 E coli pH423 APH(3)-VI ([4]; Table 2B (Example 2)): >32 μg/ml
MIC50 E coli pH432 ANT(4′) ([4]; Table 2B (Example 2)): 1 μg/ml
MIC AG215 K. pneumon [8]: 1 µg/mL (≈ 1.59 µM)
MIC AG225 A. baumannii [9]: 2 µg/mL (≈ 3.18 µM)
MIC AG290 E. cloacae [10]: 1 µg/mL (≈ 1.59 µM)
Disk diffusion 25 nmol N. gonorrhoeae [11]: 10 mm
MIC SZ380 M. smegmatis [12]: 0.5 µg/mL (≈ 0.794 µM)

CC(N)C1OC(OC2C(N)CC(N)C(O)C2OC2OC(CO)C(OC3OC(CN)C(O)C(O)C3N)C2O)C(N)C(O)C1O (stereo not shown) [Compound 166]
MIC50 MRSA AG38 [1]: 2 µg/mL (≈ 3.18 µM)
MIC50 MRSA AG39 [1]: >128 µg/mL
MIC50 MRSA AG42 [1]: >128 µg/mL
MIC50 MRSA AG44 [1]: 1 µg/mL (≈ 1.59 µM)
MIC50 E coli BM13 (AG06) wt [2]: 0.5 to 1 µg/mL
MIC50 E coli pH430 WT [2]: 0.5 μg/ml
MIC50 E coli AG01 [2]: 2 µg/mL (≈ 3.18 µM)
MIC50 E coli AG03 [2]: 2 µg/mL (≈ 3.18 µM)
MIC50 E coli AG55 [2]: 2 µg/mL (≈ 3.18 µM)
MIC AG212 E. coli [2]: 1 µg/mL (≈ 1.59 µM)
MIC50 P aeruginosa AG31 [3]: ≥128 µg/mL
MIC50 P aeruginosa AG32 [3]: 128 µg/mL (≈ 204 µM)
MIC50 P aeruginosa AG33 [3]: ≥128 µg/mL
MIC50 P aeruginosa AG86 [3]: 16 µg/mL (≈ 25.5 µM)
MIC AG220 P. aerugin [3, 13]: >32 µg/mL
MIC50 E coli AG09 AAC(6′) ([4]; AG09 AAC(6′), Table 2A (Example 2)): 0.5 µg/mL (≈ 0.795 µM)
MIC50 E coli AG036 ANT(4′,4″) ([4]; Table 2A (Example 2)): 16 µg/mL (≈ 25.5 µM)
MIC50 E coli AG036 ANT(4′,4″) ([4]; Table 2B (Example 2)): 16 µg/mL (≈ 25.5 µM)
MIC50 E coli AG037 APH(3′)-III ([4]; Table 2B (Example 2)): >64 µg/mL
MIC50 E coli AG037 APH(3′,5″) ([4]; AG037 APH(3′,5″), Table 2A (Example 2)): >64 µg/mL
MIC50 E coli AG103 armA ([4]; Table 2B (Example 2)): 1 µg/mL (≈ 1.59 µM)
MIC50 E coli pH414 AAC(6′)-I ([4]; Table 2B (Example 2)): 0.5 μg/ml
MIC50 E coli pH415 AAC(6′)-II ([4]; Table 2B (Example 2)): 1-2 μg/ml
MIC50 E coli pH421 APH(3′)-I ([4]; Table 2B (Example 2)): >32 μg/ml
MIC50 E coli pH422 APH(3′)-II ([4]; Table 2B (Example 2)): >32 μg/ml
MIC50 E coli pH423 APH(3)-VI ([4]; Table 2B (Example 2)): >32 μg/ml
MIC50 E coli pH432 ANT(4′) ([4]; Table 2B (Example 2)): 0.5 μg/ml
MIC AG215 K. pneumon [8]: 0.25 to 0.5 µg/mL
MIC AG225 A. baumannii [9]: 1 µg/mL (≈ 1.59 µM)
MIC AG290 E. cloacae [10]: 0.5 µg/mL (≈ 0.795 µM)
Disk diffusion 25 nmol N. gonorrhoeae [11]: 12 mm
MIC SZ380 M. smegmatis [12]: 0.125 to 0.25 µg/mL
